In patent publication US20240166663A1, “NOVEL PYRIMIDINE DERIVATIVE SHOWING INHIBITION EFFECT ON GROWTH OF CANCER CELLS” (ONCOBIX CO., LTD., priority 2021, published 2024):

molecular target: EXON 20 Insertion(NPG) Ba/F3 Cell (Homo sapiens, UniProt P00533, INS772GNP, cells depend on it); test: Measurement of cancer cell growth inhibitory effect (MTT assay); type: cell-based, Murine; details: Ba/F3 cells expressing EGFR with NPG added at D770_N771, 72 hours treatment, read at 595 nm, read-out: EXON 20 Insertion(NPG) Ba/F3 Cell(IC50)
Sequence (P00533 with tags, fused parts or gaps INS772GNP): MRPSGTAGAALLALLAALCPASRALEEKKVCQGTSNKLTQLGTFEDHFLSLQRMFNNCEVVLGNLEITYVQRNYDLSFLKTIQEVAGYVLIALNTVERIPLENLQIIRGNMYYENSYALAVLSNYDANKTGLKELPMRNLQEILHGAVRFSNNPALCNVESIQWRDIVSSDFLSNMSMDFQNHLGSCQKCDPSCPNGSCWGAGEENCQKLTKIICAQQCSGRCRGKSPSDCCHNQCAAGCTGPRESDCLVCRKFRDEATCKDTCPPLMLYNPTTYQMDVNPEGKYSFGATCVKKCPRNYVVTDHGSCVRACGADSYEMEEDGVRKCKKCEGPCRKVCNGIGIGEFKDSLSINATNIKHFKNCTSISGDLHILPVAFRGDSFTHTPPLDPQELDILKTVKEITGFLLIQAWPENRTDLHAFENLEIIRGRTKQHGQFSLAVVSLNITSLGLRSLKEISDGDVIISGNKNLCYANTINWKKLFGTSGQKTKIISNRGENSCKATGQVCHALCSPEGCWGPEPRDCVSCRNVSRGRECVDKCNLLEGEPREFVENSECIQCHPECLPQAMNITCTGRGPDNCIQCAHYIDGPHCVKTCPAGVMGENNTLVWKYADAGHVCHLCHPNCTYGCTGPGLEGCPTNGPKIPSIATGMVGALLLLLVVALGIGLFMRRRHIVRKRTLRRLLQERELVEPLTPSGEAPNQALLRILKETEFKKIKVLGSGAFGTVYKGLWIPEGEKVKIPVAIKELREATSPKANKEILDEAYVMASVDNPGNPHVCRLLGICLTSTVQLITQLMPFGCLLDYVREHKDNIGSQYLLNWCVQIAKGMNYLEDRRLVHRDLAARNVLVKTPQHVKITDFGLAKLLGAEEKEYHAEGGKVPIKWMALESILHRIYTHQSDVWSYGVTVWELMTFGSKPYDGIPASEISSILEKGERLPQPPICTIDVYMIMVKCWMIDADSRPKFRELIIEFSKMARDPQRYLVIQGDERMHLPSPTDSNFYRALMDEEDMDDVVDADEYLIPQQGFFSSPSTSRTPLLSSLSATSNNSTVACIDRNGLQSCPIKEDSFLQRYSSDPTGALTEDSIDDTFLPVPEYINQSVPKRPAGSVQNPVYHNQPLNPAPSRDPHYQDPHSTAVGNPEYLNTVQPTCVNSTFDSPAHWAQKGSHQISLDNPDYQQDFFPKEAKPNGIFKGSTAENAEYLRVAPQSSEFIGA
Text: Since there is no commercially available lung cancer cell line with EGFR insertion mutation, a method of inserting 3 to 4 amino acids at each site using site direct mutagenesis in a wild type EGFR expression vector was attempted. In the present invention, first, a vector with three amino acids of NPG added to the D770_N771 site with the highest frequency was used, and Ba/F3 cell line was used for expression of these genes.
When the oncogenic mutant EGFR is expressed, dependence on the mutant EGFR for cell growth and apoptosis occurs without IL-3. Therefore, substances that show effective inhibition of mutant EGFR suppress cell growth and induce apoptosis, so the anticancer effect of cells was analyzed through MTT assay.
1×10^4 cells of the previously constructed stable cells were put into a 96 well plate and incubated overnight, and then the compound of Example was dose dependently treated. After 72 hours, MTT reagent was added, and after 3 hours stop buffer (10% SDS) was added. After 24 hours of incubation, the results were analyzed by reading at 595 nm. […] As a control drug, Mobocertinib was used.

Row | SMILES | GI50 [nM]
1 | C=CC(=O)Nc1cc(Nc2ncc(C(=O)OC)c(Nc3ccccc3-c3ccn(C)n3)n2)c(OC)cc1N(C)CCN(C)C [Example 18, methyl 2-((5-acrylamido-4-((2-(dimethylamino)ethyl)(methyl)amino)-2-methoxyphenyl)amino)-4-((2-(1-methyl-1H-pyrazol-3-yl)phenyl)amino)pyrimidin-5-carboxylate] | 25 to 50
2 | C=CC(=O)Nc1cc(Nc2cc(Nc3ccccc3-c3ccn(C)n3)ncn2)c(OC)cc1N1CCN(C)CC1 [Example 4, N-(4-methoxy-5-((6-((2-(1-methyl-1H-pyrazol-3-yl)phenyl)amino)pyrimidin-4-yl)amino)-2-(4-methylpiperizin-1-yl)phenyl)acrylamide] | 25 to 50
3 | C=CC(=O)Nc1cc(Nc2cc(Nc3ccccc3-c3ccn(C)n3)ncn2)c(OCC)cc1N(C)CCN(C)C [Example 11] | 25 to 50
4 | C=CC(=O)Nc1cc(Nc2ncc(C(=O)OC(C)C)c(Nc3ccccc3-c3ccn(C)n3)n2)c(OC)cc1N1CC[C@H](N(C)C)C1 [Example 25, Isopropyl(S)-2-((5-acrylamido-4-(3-(dimethylamino)pyrrolidin-1-yl)-2-methoxyphenyl)amino)-4-((2-(1-methyl-1H-pyrazol-3-yl)phenyl)amino)pyrimidin-5-carboxylate] | 25 to 50
5 | C=CC(=O)Nc1cc(Nc2ncc(C(=O)OC(C)C)c(Nc3ccccc3-c3ccn(C)n3)n2)c(OC)cc1N1CCN(C)CC1 [Example 23, Isopropyl 2-((5-acrylamido-2-methoxy-4-(4-methylpiperizin-l-yl)phenyl)amino)-4-((2-(1-methyl-1H-pyrazol-3-yl)phenyl)amino)pyrimidin-5-carboxylate] | 25 to 50
6 | C=CC(=O)Nc1cc(Nc2ncc(C(=O)OC3CC3)c(Nc3ccccc3-c3ccn(C)n3)n2)c(OC)cc1N(C)CCN(C)C [Example 22, cyclopropyl 2-((5-acrylamido-4-((2-(dimethylamino)ethyl)(methyl)amino)-2-methoxyphenyl)amino)-4-((2-(1-methyl-1H-pyrazol-3-yl)phenyl)amino)pyrimidin-5-carboxylate] | 25 to 50
7 | C=CC(=O)Nc1cc(Nc2ncc(Cl)c(Nc3ccccc3-n3cccn3)n2)c(OC)cc1N(C)CCN(C)C [Example 30, N-(5-((4-((2-(1H-pyrazol-1-yl)phenyl)amino)-5-chloropyrimidin-2-yl)amino)-2-((2-(dimethylamino)ethyl)(methyl)amino)-4-methoxyphenyl)acrylamide] | < 25
8 | C=CC(=O)Nc1cc(Nc2cc(Nc3ccccc3-c3ccn(C)n3)ncn2)c(OC2CC2)cc1N(C)CCN(C)C [Example 12, N-(4-cyclopropoxy-2-((2-(dimethylamino)ethyl)(methyl)amino)-5-((6-((2-(1-methyl-1H-pyrazol-3-yl)phenyl)amino)pyrimidin-4-yl)amino)phenyl)acrylamide] | 25 to 50
9 | C=CC(=O)Nc1cc(Nc2ncc(C(=O)OC(C)C)c(Nc3ccccc3-c3ccn(C)n3)n2)c(OC)cc1N(C)[C@H]1CCN(C)C1 [Example 28, Isopropyl(S)-2-((5-acrylamido-2-methoxy-4-(methyl(1-methylpyrrolidin-3-yl)amino)phenyl)amino)-4-((2-(1-methyl-1H-pyrazol-3-yl)phenyl)amino)pyrimidin-5-carboxylate] | 25 to 50
10 | C=CC(=O)Nc1cc(Nc2ncc(Cl)c(Nc3ccccc3-c3ccn(C)n3)n2)c(OC)cc1N(C)CCN(C)C [Example 29, N-(5-((5-chloro-4-((2-(1-methyl-1H-pyrazol-3-yl)phenyl)amino)pyrimidin-2-yl)amino)-2-((2-(dimethylamino)ethyl)(methyl)amino)-4-methoxyphenyl)acrylamide] | < 25
11 | C=CC(=O)Nc1cc(Nc2ncc(C(=O)OC(C)C)c(Nc3ccccc3-c3ccn(C)n3)n2)c(OC)cc1N1CC[C@@H](N(C)C)C1 [Example 26, Isopropyl(R)-2-((5-acrylamido-4-(3-(dimethylamino)pyrrolidin-1-yl)-2-methoxyphenyl)amino)-4-((2-(1-methyl-1H-pyrazol-3-yl)phenyl)amino)pyrimidin-5-carboxylate] | 25 to 50
12 | C=CC(=O)Nc1cc(Nc2cc(Nc3ccccc3-c3ccn(C)n3)ncn2)c(OCC(F)(F)F)cc1N(C)CCN(C)C [Example 10, N-(2-((2-(diamethylamino)ethyl)(methyl)amino)-5-((6-((2-(1-methyl-1H-pyrazol-3-yl)phenyl)amino)pyrimidin-4-yl)amino)-4-(2,2,2-trifluoroethoxy)phenyl)acrylamide] | < 25
13 | C=CC(=O)Nc1cc(Nc2ncc(C(=O)OCC)c(Nc3ccccc3-c3ccn(C)n3)n2)c(OC)cc1N(C)CCN(C)C [Example 20, ethyl 2-((5-acrylamido-4-((2-(dimethylamino)ethyl)(methyl)amino)-2-methoxyphenyl)amino)-4-((2-(1-methyl-1H-pyrazol-3-yl)phenyl)amino)pyrimidin-5-carboxylate] | 25 to 50
14 | C=CC(=O)Nc1cc(Nc2cc(Nc3ccccc3-n3cccn3)ncn2)c(OC)cc1N(C)CCN(CC)CC [Example 37, N-(5-((6-((2-(1H-pyrazol-1-yl)phenyl)amino)pyrimidin-4-yl)amino)-2-((2-(diethylamino)ethyl)(methyl)amino)-4-methoxyphenyl)acrylamide] | 25 to 50
15 | C=CC(=O)Nc1cc(Nc2cc(Nc3ccccc3-c3ccn(C)n3)ncn2)c(OC)cc1N1CC[C@@H](N(C)C)C1 [Example 7, (R)-N-(2-(3-(dimethylamino)pyrrolidin-1-yl)-4-methoxy-5-((6-((2-(1-methyl-1H-pyrazol-3-yl)phenyl)amino)pyrimidin-4-yl)amino)phenyl)acrylamide] | 25 to 50
16 | C=CC(=O)Nc1cc(Nc2ncc(C)c(Nc3ccccc3-n3cccn3)n2)c(OC)cc1N(C)CCN(C)C [Example 14, N-(5-((4-((2-(1H-pyrazol-1-yl)phenyl)amino)-5-methylpyrimidin-2-yl)amino)-2-((2-(dimethylamino)ethyl)(methyl)amino)-4-methoxyphenyl)acrylamide] | 25 to 50
17 | C=CC(=O)Nc1cc(Nc2ncc(Cl)c(Nc3ccccc3-c3ccn(C)n3)n2)c(OC)cc1N1CCN(C)CC1 [Example 31, N-(5-((5-chloro-4-((2-(1-methyl-1H-pyrazol-3-yl)phenyl)amino)pyrimidin-2-yl)amino)-4-methoxy-2-(4-methylpiperizin-1-yl)phenyl)acrylamide] | 25 to 50
18 | C=CC(=O)Nc1cc(Nc2cc(Nc3ccccc3-c3ccn(C)n3)ncn2)c(OC)cc1N(C)CCN(C)C [Example 1, N-(2-((2-(dimethylamino)ethyl)(methyl)amino)-4-methoxy-5-((6-((2-(1-methyl-1H-pyrazol-3-yl)phenyl)amino)pyrimidin-4-yl)amino)phenyl)acrylamide] | < 25
19 | C=CC(=O)Nc1cc(Nc2cc(Nc3ccccc3-n3cccn3)ncn2)c(OC)cc1N(C)CCN(C)C [Example 2, N-(5-((6-((2-(1H-pyrazol-1-yl)phenyl)amino)pyrimidin-4-yl)amino)-2-((2-(dimethylamino)ethyl)(methyl)amino)-4-methoxyphenyl)acrylamide] | < 25
20 | C=CC(=O)Nc1cc(Nc2ncc(C(=O)OC(C)C)c(-c3cn(C)c4ccccc34)n2)c(OC)cc1N(C)CCN(C)C [Mobocertinib, reference compound] | 50 to 500
21 | C=CC(=O)Nc1cc(Nc2ncc(C(=O)OC(C)C)c(Nc3ccccc3-c3ccn(C)n3)n2)c(OC)cc1N(C)[C@@H]1CCN(C)C1 [Example 27, Isopropyl(R)-2-((5-acrylamido-2-methoxy-4-(methyl(1-methylpyrrolidin-3-yl)amino)phenyl)amino)-4-((2-(1-methyl-1H-pyrazol-3-yl)phenyl)amino)pyrimidin-5-carboxylate] | 25 to 50
22 | C=CC(=O)Nc1cc(Nc2cc(Nc3ccccc3-n3cccn3)ncn2)c(OC)cc1N1C2CCC1COC2 [Example 39, N-(5-((6-((2-(1H-pyrazol-1-yl)phenyl)amino)pyrimidin-4-yl)amino)-2-(3-oxa-8-azabicyclo[3.2.1]octan-8-yl)-4-methoxyphenyl)acrylamide] | 25 to 50
23 | C=CC(=O)Nc1cc(Nc2cc(Nc3ccccc3-c3ccn(C)n3)ncn2)c(OC)cc1N1CC[C@H](N(C)C)C1 [Example 6, (S)-N-(2-(3-(dimethylamino)pyrrolidin-1-yl)-4-methoxy-5-((6-((2-(1-methyl-1H-pyrazol-3-yl)phenyl)amino)pyrimidin-4-yl)amino)phenyl)acrylamide] | 25 to 50
24 | C=CC(=O)Nc1cc(Nc2ncc(C(F)(F)F)c(Nc3ccccc3-c3ccn(C)n3)n2)c(OC)cc1N(C)CCN(C)C [Example 15, N-(2-((2-(dimethylamino)ethyl)(methyl)amino)-4-methoxy-5-((4-((2-(1-methyl-1H-pyrazol-3-yl)phenyl)amino)-5-(trifluoromethyl)pyrimidin-2-yl)amino)phenyl)acrylamide] | 25 to 50
25 | C=CC(=O)Nc1cc(Nc2ncc(Cl)c(Nc3ccccc3-c3ccn(C)n3)n2)c(OC)cc1N(C)[C@H]1CCN(C)C1 [Example 36, (S)-N-(5-((5-chloro-4-((2-(1-methyl-1H-pyrazol-3-yl)phenyl)amino)pyrimidin-2-yl)amino)-4-methoxy-2-(methyl(1-methylpyrrolidin-3-yl)amino)phenyl)acrylamide] | 25 to 50
26 | C=CC(=O)Nc1cc(Nc2ncc(C(=O)OCC)c(Nc3ccccc3-n3cccn3)n2)c(OC)cc1N(C)CCN(C)C [Example 21, ethyl 4-((2-(1H-pyrazol-1-yl)phenyl)amino)-2-((5-acrylamido-4-((2-(dimethylamino)ethyl)(methyl)amino)-2-methoxyphenyl)amino)pyrimidin-5-carboxylate] | 25 to 50
